Assay results reported in patent US9249125B2, “Pyrazole derivatives as p38 MAP inhibitors” (RESPIVERT LIMITED, priority 2012, dated 2016).

Columns and labels:
[1] = test system: LPS-induced TNFα release in d-U937 cells; assay: LPS-induced TNFα release in d-U937 cells; assay type: cell-based; conditions: Homo sapiens, dU937, relative to 10 μg/mL BIRB796, read-out: LPS Induced Release of Cytokine in d-937 Cells TNFα REC50
How it was run: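 Read-out: TNFα and IL-8 released into supernatant, sandwich ELISA, expressed as inhibition versus vehicle at each dose and fitted to give REC50. Cells were PMA-differentiated U937 (100 ng/mL, 48–72 hr), compound-exposed 2 hr before a 4 hr LPS stimulus (0.1 μg/mL).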

p38 MAPKα = p38 MAPKα (Homo sapiens (Human), UniProt Q16539); assay: p38 MAPKα enzyme inhibition (FRET, Z-LYTE); assay type: biochemical
p38 MAPKα, sequence (Q16539 whole entry): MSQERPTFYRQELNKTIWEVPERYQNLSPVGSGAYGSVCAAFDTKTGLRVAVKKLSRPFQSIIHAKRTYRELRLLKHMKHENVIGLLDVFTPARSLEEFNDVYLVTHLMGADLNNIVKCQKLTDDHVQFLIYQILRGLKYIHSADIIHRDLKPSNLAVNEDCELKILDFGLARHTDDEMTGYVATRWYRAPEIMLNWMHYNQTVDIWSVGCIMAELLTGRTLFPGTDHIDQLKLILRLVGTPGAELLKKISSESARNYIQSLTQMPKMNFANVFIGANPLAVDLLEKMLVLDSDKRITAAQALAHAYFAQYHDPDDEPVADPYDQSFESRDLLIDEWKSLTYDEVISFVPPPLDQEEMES

[2] = test system: LPS-induced IL-8 release in d-U937 cells; assay: LPS-induced IL-8 release in d-U937 cells; assay type: cell-based; conditions: Homo sapiens, dU937, read-out: LPS Induced Release of Cytokine in d-937 Cells IL-8 IC50
How it was run: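 Human monocytic U937 cells were differentiated to macrophage-type cells with PMA (100 ng/mL) for 48 to 72 hr, pre-treated with test compound for 2 hr, then stimulated 4 hr with E. coli O111:B4 LPS (0.1 μg/mL). Supernatant TNFα and IL-8 were measured by sandwich ELISA; REC50 came from concentration-response curves.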

Syk = Syk (Homo sapiens (Human), UniProt P43405); assay: Syk enzyme inhibition (FRET, Z-LYTE); assay type: biochemical
How it was run: (§1)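 Z-LYTE FRET kinase assay: enzyme (3000 or 2000 ng/mL stock, respectively) preincubated 2 h at RT with compound (4–0.004 μg/mL stocks), then FRET peptide plus ATP (800 μM stock for c-Src, 60 μM for Syk) added for 1 h. Protease development 1 h; phosphorylation from coumarin/fluorescein emission ratio.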

GSK3α = GSK3α (Homo sapiens (Human), UniProt P49840); assay: GSK 3α enzyme inhibition (FRET, Z-LYTE); assay type: biochemical
GSK3α, sequence (P49840 whole entry): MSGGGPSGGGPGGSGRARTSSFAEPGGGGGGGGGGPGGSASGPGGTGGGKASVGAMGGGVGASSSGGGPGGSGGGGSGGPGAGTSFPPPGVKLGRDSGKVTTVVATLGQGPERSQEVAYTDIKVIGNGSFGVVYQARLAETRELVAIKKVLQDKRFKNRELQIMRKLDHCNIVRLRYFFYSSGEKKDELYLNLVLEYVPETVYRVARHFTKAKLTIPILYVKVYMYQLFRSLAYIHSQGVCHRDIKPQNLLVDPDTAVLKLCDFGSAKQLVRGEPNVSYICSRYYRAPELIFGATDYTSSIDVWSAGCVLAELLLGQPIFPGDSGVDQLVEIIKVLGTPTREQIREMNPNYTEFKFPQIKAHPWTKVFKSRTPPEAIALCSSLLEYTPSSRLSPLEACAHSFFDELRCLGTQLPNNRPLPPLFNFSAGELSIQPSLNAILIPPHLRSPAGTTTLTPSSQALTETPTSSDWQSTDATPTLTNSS
How it was run: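 Phosphorylation was read as the donor (coumarin) to acceptor (fluorescein) ratio after a 1 hr protease step destroying non-phosphorylated peptide. Before this, compound (4–0.004 μg/mL stocks) sat 2 hr at RT with GSK3α (500 ng/mL stock), followed by 1 hr kinase reaction with 8 μM peptide and 40 μM ATP stocks.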

cSrc = cSrc (Homo sapiens (Human), UniProt P12931); assay: c-Src enzyme inhibition (FRET, Z-LYTE); assay type: biochemical
cSrc, sequence (P12931 whole entry, looked up): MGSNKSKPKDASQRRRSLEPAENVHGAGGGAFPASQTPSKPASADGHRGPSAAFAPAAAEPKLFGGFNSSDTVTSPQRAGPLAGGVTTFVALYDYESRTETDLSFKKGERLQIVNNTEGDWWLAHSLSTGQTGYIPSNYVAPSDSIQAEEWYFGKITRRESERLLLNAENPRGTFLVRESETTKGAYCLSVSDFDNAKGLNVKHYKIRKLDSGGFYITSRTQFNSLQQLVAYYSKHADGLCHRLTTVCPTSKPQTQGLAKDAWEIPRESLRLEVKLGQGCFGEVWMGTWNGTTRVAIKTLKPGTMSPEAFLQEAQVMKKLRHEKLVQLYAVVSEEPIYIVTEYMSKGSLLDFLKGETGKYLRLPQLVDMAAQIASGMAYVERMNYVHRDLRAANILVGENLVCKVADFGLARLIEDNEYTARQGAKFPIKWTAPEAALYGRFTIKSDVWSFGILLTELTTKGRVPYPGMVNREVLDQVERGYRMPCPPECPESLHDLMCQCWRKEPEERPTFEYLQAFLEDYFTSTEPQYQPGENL
How it was run: as §1

[3] = test system: Poly I:C-induced ICAM-1 expression in BEAS2B cells; assay: Poly I:C-induced ICAM-1 expression in BEAS2B cells; assay type: cell-based; conditions: Homo sapiens, BEAS-2B, read-out: Poly IC induced ICAM1 in BEAS2B IC50
How it was run: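 Cell-based ELISA read at 450 nm minus 655 nm, divided by crystal violet OD595 to normalize for cell number, gave ICAM-1 levels. Readout was taken 18 hr after poly I:C (1 μg/mL, Oligofectamine) transfection of human bronchial BEAS2B cells pretreated 2 hr with test compound.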

d-U937 cells = assay: Cell viability: MTT assay; assay type: cell-based, human; conditions: 1 μg/mL
How it was run: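 MTT read-out (1 h, absorbance 550 nm) on d-U937 cells after pre-incubation with 1 or 10 μg/mL compound under two regimes: 4 h, 5% FCS, or 24 h, 10% FCS RPMI1640. Values are percent loss of viability relative to vehicle (0.5% DMSO), so increases are reported as negative.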

Cc1n[nH]c2ccc(Nc3nccc(Oc4ccc(NC(=O)Nc5cc(C(C)(C)C)nn5-c5ccc(OCCN6CCOCC6)cc5)c5ccccc45)n3)cc12 [Example 72] gave an EC50 [1] of 1.6 nM, an IC50 (p38 MAPKα) of 13 nM and an IC50 [2] of 1.7 nM. The IC50 (Syk) was 3 nM, the IC50 (GSK3α) was 2290 nM and the IC50 (cSrc) was 2 nM. The IC50 [3] was 165 nM, the “MTT Assay Cell viability at time point in d-U937 cells 4 h” value (d-U937 cells) was “−ve (−ve and +ve indicate that the value is below and above respectively, the no significant effect threshold, defined as 30% inhibition at 1 μg/mL at the time point indicated.)” and the “MTT Assay Cell viability at time point in d-U937 cells 24 h” value (d-U937 cells) was “−ve (−ve and +ve indicate that the value is below and above respectively, the no significant effect threshold, defined as 30% inhibition at 1 μg/mL at the time point indicated.)”.

In the case of Cc1ccc(-n2nc(C(C)(C)C)cc2NC(=O)Nc2ccc(Oc3ccnc(Nc4ccc5c(cnn5CCN5CCOCC5)c4)n3)c3ccccc23)cc1 [Example 29, 1-(3-(tert-butyl)-1-(p-tolyl)-1H-pyrazol-5-yl)-3-(4-((2-((1-(2-morpholinoethyl)-1H-indazol-5-yl)amino)pyrimidin-4-yl)oxy)naphthalen-1-yl)urea], the EC50 [1] is reported as 9.9 nM, the IC50 (p38 MAPKα) is reported as 57 nM and the IC50 [2] is reported as 21.1 nM. It also gave an IC50 (Syk) of 29 nM, an IC50 (GSK3α) of 582 nM and an IC50 (cSrc) of 12 nM. For the same compound, the IC50 [3] was 0.9 nM, the “MTT Assay Cell viability at time point in d-U937 cells 4 h” value (d-U937 cells) was “−ve (−ve and +ve indicate that the value is below and above respectively, the no significant effect threshold, defined as 30% inhibition at 1 μg/mL at the time point indicated.)” and the “MTT Assay Cell viability at time point in d-U937 cells 24 h” value (d-U937 cells) was “−ve (−ve and +ve indicate that the value is below and above respectively, the no significant effect threshold, defined as 30% inhibition at 1 μg/mL at the time point indicated.)”.

Work on CC(C)(C)c1cc(NC(=O)Nc2ccc(Oc3ccnc(Nc4ccc5c(c4)OCCO5)n3)c3ccccc23)n(-c2ccc(OCCN3CCOCC3)cc2)n1 [Example 11, 1-(3-(tert-Butyl)-1-(4-(2-morpholinoethoxy)phenyl)-1H-pyrazol-5-yl)-3-(4-((2-((2,3-dihydrobenzo[b][1,4]dioxin-6-yl)amino)pyrimidin-4-yl)oxy)naphthalen-1-yl)urea] yielded an EC50 [1] of 8.5 nM, an IC50 (p38 MAPKα) of 39 nM and an IC50 [2] of 25.2 nM. It also gave an IC50 (Syk) of 15 nM, an IC50 (GSK3α) of 848 nM and an IC50 (cSrc) of 6 nM. For the same compound, the IC50 [3] was 7.9 nM, the “MTT Assay Cell viability at time point in d-U937 cells 4 h” value (d-U937 cells) was “−ve (−ve and +ve indicate that the value is below and above respectively, the no significant effect threshold, defined as 30% inhibition at 1 μg/mL at the time point indicated.)” and the “MTT Assay Cell viability at time point in d-U937 cells 24 h” value (d-U937 cells) was “−ve (−ve and +ve indicate that the value is below and above respectively, the no significant effect threshold, defined as 30% inhibition at 1 μg/mL at the time point indicated.)”.

Cc1ccc(-n2nc(C(C)(C)C)cc2NC(=O)Nc2ccc(Oc3ccnc(Nc4cc(Cl)c5[nH]ncc5c4)n3)c3ccccc23)cc1 [Example 28, 1-(3-(tert-butyl)-1-(p-tolyl)-1H-pyrazol-5-yl)-3-(4-((2-((7-chloro-1H-indazol-5-yl)amino)pyrimidin-4-yl)oxy)naphthalen-1-yl)urea] showed an EC50 [1] of 1.6 nM, an IC50 (p38 MAPKα) of over 1520 nM and an IC50 [2] of 1.7 nM. For the same compound, the IC50 (Syk) was 711 nM, the IC50 (GSK3α) was over 1520 nM and the IC50 (cSrc) was 164 nM. For the same compound, the IC50 [3] was 3.4 nM, the “MTT Assay Cell viability at time point in d-U937 cells 4 h” value (d-U937 cells) was “−ve (−ve and +ve indicate that the value is below and above respectively, the no significant effect threshold, defined as 30% inhibition at 1 μg/mL at the time point indicated.)” and the “MTT Assay Cell viability at time point in d-U937 cells 24 h” value (d-U937 cells) was “−ve (−ve and +ve indicate that the value is below and above respectively, the no significant effect threshold, defined as 30% inhibition at 1 μg/mL at the time point indicated.)”.

In the case of COCCOc1cccc(-n2nc(C(C)(C)C)cc2NC(=O)Nc2ccc(Oc3ccnc(Nc4cc(C)c5[nH]ncc5c4)c3)c3ccccc23)c1 [Example 57], the EC50 [1] is reported as 1.1 nM, the IC50 (p38 MAPKα) is reported as 74 nM and the IC50 [2] is reported as 2.3 nM. It also gave an IC50 (Syk) of 15 nM, an IC50 (GSK3α) of 4700 nM and an IC50 (cSrc) of 19 nM. For the same compound, the IC50 [3] was 4.4 nM, the “MTT Assay Cell viability at time point in d-U937 cells 4 h” value (d-U937 cells) was “−ve (−ve and +ve indicate that the value is below and above respectively, the no significant effect threshold, defined as 30% inhibition at 1 μg/mL at the time point indicated.)” and the “MTT Assay Cell viability at time point in d-U937 cells 24 h” value (d-U937 cells) was “−ve (−ve and +ve indicate that the value is below and above respectively, the no significant effect threshold, defined as 30% inhibition at 1 μg/mL at the time point indicated.)”.

COc1ccc(-n2nc(C(C)(C)C)cc2NC(=O)Nc2ccc(Oc3ccnc(Nc4ccc5[nH]ccc5c4)n3)c3ccccc23)cn1 [Example 82, 1-(4-((2-((1H-indol-5-yl)amino)pyrimidin-4-yl)oxy)naphthalen-1-yl)-3-(3-(tert-butyl)-1-(6-methoxypyridin-3-yl)-1H-pyrazol-5-yl)urea] showed an EC50 [1] of 1.8 nM, an IC50 (p38 MAPKα) of 63 nM and an IC50 [2] of 2.4 nM. It also gave an IC50 (Syk) of 26 nM, an IC50 (GSK3α) of over 1560 nM and an IC50 (cSrc) of 10 nM. The IC50 [3] was 2.7 nM, the “MTT Assay Cell viability at time point in d-U937 cells 4 h” value (d-U937 cells) was “−ve (−ve and +ve indicate that the value is below and above respectively, the no significant effect threshold, defined as 30% inhibition at 1 μg/mL at the time point indicated.)” and the “MTT Assay Cell viability at time point in d-U937 cells 24 h” value (d-U937 cells) was “−ve (−ve and +ve indicate that the value is below and above respectively, the no significant effect threshold, defined as 30% inhibition at 1 μg/mL at the time point indicated.)”.

For Cc1cc(Nc2nccc(Oc3ccc(NC(=O)Nc4cc(C(C)(C)C)nn4-c4cccc(CN5CCCC5=O)c4)c4ccccc34)n2)cc2cn[nH]c12 [Example 10, 1-(3-(tert-Butyl)-1-(3-((2-oxopyrrolidin-1-yl)methyl)phenyl)-1H-pyrazol-5-yl)-3-(4-((2-((7-methyl-1H-indazol-5-yl)amino)pyrimidin-4-yl)oxy)naphthalen-1-yl)urea], the EC50 [1] was 1.4 nM, the IC50 (p38 MAPKα) was 18 nM and the IC50 [2] was 1.2 nM. For the same compound, the IC50 (Syk) was 2 nM, the IC50 (GSK3α) was 589 nM and the IC50 (cSrc) was under 1 nM. For the same compound, the IC50 [3] was 3.9 nM, the “MTT Assay Cell viability at time point in d-U937 cells 4 h” value (d-U937 cells) was “−ve (−ve and +ve indicate that the value is below and above respectively, the no significant effect threshold, defined as 30% inhibition at 1 μg/mL at the time point indicated.)” and the “MTT Assay Cell viability at time point in d-U937 cells 24 h” value (d-U937 cells) was “−ve (−ve and +ve indicate that the value is below and above respectively, the no significant effect threshold, defined as 30% inhibition at 1 μg/mL at the time point indicated.)”.

For Cc1cc2cc(Nc3nccc(Oc4ccc(NC(=O)Nc5cc(C(C)(C)C)nn5-c5ccc(OCCN6CCOCC6)cc5)c5ccccc45)n3)ccc2[nH]1 [Example 66, 1-(3-(tert-butyl)-1-(4-(2-morpholinoethoxy)phenyl)-1H-pyrazol-5-yl)-3-(4-((2-((2-methyl-1H-indol-5-yl)amino)pyrimidin-4-yl)oxy)naphthalen-1-yl)urea], the EC50 [1] was 6.4 nM, the IC50 (p38 MAPKα) was 335 nM and the IC50 [2] was 16 nM. It also gave an IC50 (Syk) of 19 nM, an IC50 (GSK3α) of 2850 nM and an IC50 (cSrc) of 15 nM. For the same compound, the IC50 [3] was 6.9 nM, the “MTT Assay Cell viability at time point in d-U937 cells 4 h” value (d-U937 cells) was “−ve (−ve and +ve indicate that the value is below and above respectively, the no significant effect threshold, defined as 30% inhibition at 1 μg/mL at the time point indicated.)” and the “MTT Assay Cell viability at time point in d-U937 cells 24 h” value (d-U937 cells) was “−ve (−ve and +ve indicate that the value is below and above respectively, the no significant effect threshold, defined as 30% inhibition at 1 μg/mL at the time point indicated.)”.
